Laboratory results reported in publication PMC4450297, “Screening Active Compounds from Garcinia Species Native to China Reveals Novel Compounds Targeting the STAT/JAK Signaling Pathway” (BioMed Research International, 2015).

Experiments:
Experiment in all cases: Cell panel screen (CellTiter-Glo)
Format in all cases: cell-based, human
NCI-H2405 = NCI-H2405 (Lung), 20 micromolar, 72 hrs
Summary of the method: (§1)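 Single-concentration screen: 20 μM compound, 72 h, versus DMSO-only untreated cells. Viability read by CellTiter-Glo luminescence; % inhibition = (untreated − treated)/(untreated − no-cell background) × 100. Cells grown in recommended media plus 10% FBS at 37° C.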

MSTO-211-H = MSTO-211-H (Lung), 20 micromolar, 72 hrs
Summary of the method: as §1

Colo 205 = settings: Colo 205, 20 micromolar, 72 hrs
Summary of the method: as §1

T47D = T47D (Breast), 20 micromolar, 72 hrs
Summary of the method: as §1

BT-474 = BT-474 (Breast), 20 micromolar, 72 hrs
Summary of the method: as §1

NCI-H2347 = NCI-H2347 (Lung), 20 micromolar, 72 hrs
Summary of the method: as §1

NCI-H28 = NCI-H28 (Lung), 20 micromolar, 72 hrs
Summary of the method: as §1

A498 = A498 (listed under Lung), 20 micromolar, 72 hrs
Summary of the method: as §1

RL95 = RL95 (Uterus), 20 micromolar, 72 hrs
Summary of the method: as §1

T98G = T98G (Brain), 20 micromolar, 72 hrs
Summary of the method: as §1

CW-2 = CW-2 (Colon), 20 micromolar, 72 hrs
Summary of the method: as §1

NCI-H1623 = NCI-H1623 (Lung), 20 micromolar, 72 hrs
Summary of the method: as §1

BT-549 = BT-549 (Breast), 20 micromolar, 72 hrs
Summary of the method: as §1

HGC-27 = HGC-27 (Stomach), 20 micromolar, 72 hrs
Summary of the method: as §1

Panc 03.27 = Panc 03.27 (Pancreas), 20 micromolar, 72 hrs
Summary of the method: as §1

HPAF-II = HPAF-II (Pancreas), 20 micromolar, 72 hrs
Summary of the method: as §1

Bel-7402 = Bel-7402 (Liver), 20 micromolar, 72 hrs
Summary of the method: as §1

M059J = M059J (Brain), 20 micromolar, 72 hrs
Summary of the method: as §1

SW13 = SW13 (Adrenal gland), 20 micromolar, 72 hrs
Summary of the method: as §1

HCC1395 = HCC1395 (Breast), 20 micromolar, 72 hrs
Summary of the method: as §1

CCF-STTG1 = CCF-STTG1 (Brain), 20 micromolar, 72 hrs
Summary of the method: as §1

NCI-H1694 = NCI-H1694 (Lung), 20 micromolar, 72 hrs
Summary of the method: as §1

HEC-1-A = HEC-1-A (Uterus), 20 micromolar, 72 hrs
Summary of the method: as §1

C8166 = C8166 (Leukemia), 20 micromolar, 72 hrs
Summary of the method: as §1

HCC1599 = HCC1599 (Breast), 20 micromolar, 72 hrs
Summary of the method: as §1

ZR-75-30 = ZR-75-30 (Breast), 20 micromolar, 72 hrs
Summary of the method: as §1

HCC1937 = HCC1937 (Breast), 20 micromolar, 72 hrs
Summary of the method: as §1

A704 = A704 (Kidney), 20 micromolar, 72 hrs
Summary of the method: as §1

NCI-H1770 = NCI-H1770 (Lung), 20 micromolar, 72 hrs
Summary of the method: as §1

ChaGo-K-1 = ChaGo-K-1 (Lung), 20 micromolar, 72 hrs
Summary of the method: as §1

J82 = J82 (Urinary bladder), 20 micromolar, 72 hrs
Summary of the method: as §1

HCC1569 = HCC1569 (Breast), 20 micromolar, 72 hrs
Summary of the method: as §1

NCI-H524 = NCI-H524 (Lung), 20 micromolar, 72 hrs
Summary of the method: as §1

TCCSUP = TCCSUP (Urinary bladder), 20 micromolar, 72 hrs
Summary of the method: as §1

HT-1197 = HT-1197 (Urinary bladder), 20 micromolar, 72 hrs
Summary of the method: as §1

C3A = C3A (Liver), 20 micromolar, 72 hrs
Summary of the method: as §1

Compound	Percent Inhibition (NCI-H2405)	Percent Inhibition (MSTO-211-H)	Percent Inhibition (Colo 205)	Percent Inhibition (T47D)	Percent Inhibition (BT-474)	Percent Inhibition (NCI-H2347)	Percent Inhibition (NCI-H28)	Percent Inhibition (A498)	Percent Inhibition (RL95)	Percent Inhibition (T98G)	Percent Inhibition (CW-2)	Percent Inhibition (NCI-H1623)	Percent Inhibition (BT-549)	Percent Inhibition (HGC-27)	Percent Inhibition (Panc 03.27)	Percent Inhibition (HPAF-II)	Percent Inhibition (Bel-7402)	Percent Inhibition (M059J)	Percent Inhibition (SW13)	Percent Inhibition (HCC1395)	also measured
Bannaxanthone E [bn-3]	96%	98%	99%	96%	90%	89%	95%	96%	98%	99%	99%	95%	97%	98%	92%	92%	98%	97%	98%	98%	Percent Inhibition (CCF-STTG1): 93%; Percent Inhibition (NCI-H1694): 99%; Percent Inhibition (HEC-1-A): 88%; Percent Inhibition (C8166): 98%; Percent Inhibition (HCC1599): 98%; Percent Inhibition (ZR-75-30): 99%; Percent Inhibition (HCC1937): 98%; Percent Inhibition (A704): 98%; Percent Inhibition (NCI-H1770): 98%; Percent Inhibition (ChaGo-K-1): 97%; Percent Inhibition (J82): 98%; Percent Inhibition (HCC1569): 97%; Percent Inhibition (NCI-H524): 99%; Percent Inhibition (TCCSUP): 96%; Percent Inhibition (HT-1197): 98%; Percent Inhibition (C3A): 78%
COc1cc(O)c2c(=O)c3cc(CC=C(C)C)c(O)c(O)c3oc2c1CC=C(C)C [Go-15]	50%	69%	89%	70%	82%	51%	74%	78%	94%	98%	96%	78%	87%	98%	86%	72%	64%	88%	95%	25%	Percent Inhibition (CCF-STTG1): 84%; Percent Inhibition (NCI-H1694): 97%; Percent Inhibition (HEC-1-A): 67%; Percent Inhibition (C8166): 93%; Percent Inhibition (HCC1599): 62%; Percent Inhibition (ZR-75-30): 83%; Percent Inhibition (HCC1937): 85%; Percent Inhibition (A704): 92%; Percent Inhibition (NCI-H1770): 75%; Percent Inhibition (ChaGo-K-1): 11%; Percent Inhibition (J82): 74%; Percent Inhibition (HCC1569): 86%; Percent Inhibition (NCI-H524): 98%; Percent Inhibition (TCCSUP): 88%; Percent Inhibition (HT-1197): 51%; Percent Inhibition (C3A): 60%
COc1c(CC=C(C)C)cc2c(=O)c3c(O)cc(O)cc3oc2c1OC [gl-6]	25%	16%	43%	31%	25%	22%	39%	47%	46%	31%	51%	14%	14%	55%	45%	36%	27%	44%	18%	44%	Percent Inhibition (CCF-STTG1): 45%; Percent Inhibition (NCI-H1694): 46%; Percent Inhibition (HEC-1-A): 40%; Percent Inhibition (C8166): 41%; Percent Inhibition (HCC1599): 42%; Percent Inhibition (ZR-75-30): 90%; Percent Inhibition (HCC1937): 32%; Percent Inhibition (A704): 27%; Percent Inhibition (NCI-H1770): 23%; Percent Inhibition (ChaGo-K-1): 59%; Percent Inhibition (J82): 52%; Percent Inhibition (HCC1569): 34%; Percent Inhibition (NCI-H524): 9%; Percent Inhibition (TCCSUP): 36%; Percent Inhibition (HT-1197): 36%; Percent Inhibition (C3A): 41%
